Reference: US20070128217A1 (priority 2003, published 2007)

Legend:
[1] = test system: rabbit serum obtained by immunizing a rabbit with the SARS-CoV strain Frankfurt 1; format: binding; design: Binding of a rabbit serum to linear peptides / Binding of a rabbit serum to looped peptides / Rabbit serum linear peptides / Rabbit serum looped peptides / Binding of a rabbit serum to linear peptides of protein N of SARS-CoV Urbani (Rabbit serum linear peptides) / Binding of a rabbit serum to looped/cyclic peptides of protein N of SARS-CoV Urbani (Rabbit serum looped peptides): unit not given here
[2] = test system: antibodies in sera from SARS patients (sera 1a, 1b, 2, 6, 37, 62, London, SARS-yellow, SARS-green); format: binding, human; design: Binding of serum 6 to linear peptides of protein X1 of SARS-CoV Urbani / Binding of serum 37 to linear peptides of protein X1 of SARS-CoV Urbani / Binding of serum 6 to looped/cyclic peptide (PEPSCAN-ELISA) / Binding of serum 37 to looped/cyclic peptide (PEPSCAN-ELISA) / Binding of serum 37 to looped/cyclic peptides of protein X1 of SARS-CoV Urbani / Binding of serum 6 to linear peptides of protein X2 / Binding of serum 37 to linear peptides of protein X2 / Binding of serum 37 to looped/cyclic peptides of protein X2 of SARS-CoV Urbani / Binding of serum 6 to linear peptides of protein M of SARS-CoV Urbani / Binding of serum 37 to linear peptides of protein M of SARS-CoV Urbani / Binding of serum 6 to looped/cyclic peptides of protein M of SARS-CoV Urbani / Binding of serum 37 to looped/cyclic peptides of protein M of SARS-CoV Urbani / Binding of serum 6 to linear peptides of protein X3 of SARS-CoV Urbani / Binding of serum 37 to linear peptides of protein X3 of SARS-CoV Urbani / Binding of serum 37 to looped/cyclic peptides of protein X3 of SARS-CoV Urbani / Binding of serum 6 to linear peptides of protein X4 of SARS-CoV Urbani / Binding of serum 37 to linear peptides of protein X4 of SARS-CoV Urbani / Binding of serum 37 to looped/cyclic peptides of protein X4 of SARS-CoV Urbani / Binding of serum 6 to linear peptides of protein X5 of SARS-CoV Urbani / Binding of serum 37 to linear peptides of protein X5 of SARS-CoV Urbani / Binding of serum 37 to looped/cyclic peptides of protein X5 of SARS-CoV Urbani / Binding of serum 6 to linear peptides of protein N of SARS-CoV Urbani / Binding of serum 37 to linear peptides of protein N of SARS-CoV Urbani / Binding of serum 6 to linear peptide (PEPSCAN-ELISA) / Binding of serum 1a to looped/cyclic peptides of protein N of SARS-CoV Urbani / Binding of serum 1b to looped/cyclic peptides of protein N of SARS-CoV Urbani / Binding of serum 2 to looped/cyclic peptides of protein N of SARS-CoV Urbani / Binding of serum 6 to looped/cyclic peptides of protein N of SARS-CoV Urbani / Binding of serum 37 to looped/cyclic peptides of protein N of SARS-CoV Urbani / Binding of serum 62 to looped/cyclic peptides of protein N of SARS-CoV Urbani / Binding of serum London to looped/cyclic peptides of protein N of SARS-CoV Urbani / Binding of serum SARS-green to looped/cyclic peptides of protein N of SARS-CoV Urbani: unit not given here
[3] = test system: control sera (pooled serum of ten healthy LUMC hospital workers; commercial negative donor pooled serum from the Dutch bloodbank); format: binding, human

GTLIVNSVLLFLAFV
Binding of a rabbit serum to linear peptides [1]: 0.6
Binding of a rabbit serum to looped peptides [1]: 0.0
Binding of serum 1a to linear peptides of protein E of SARS-CoV Urbani [2]: 0.8
Binding of serum 1a to looped/cyclic peptides of protein E of SARS-CoV Urbani [2]: 0.2
Binding of serum 1b to linear peptides of protein E of SARS-CoV Urbani [2]: 0.7
Binding of serum 1b to looped/cyclic peptides of protein E of SARS-CoV Urbani [2]: 0.0
Binding of serum 2 to linear peptides of protein E of SARS-CoV Urbani [2]: 0.4
Binding of serum 2 to looped/cyclic peptides of protein E of SARS-CoV Urbani [2]: 0.6
Binding of serum 6 to linear peptides of protein E of SARS-CoV Urbani [2]: 0.9
Binding of serum 6 to looped/cyclic peptides of protein E of SARS-CoV Urbani [2]: 0.3
Binding of serum 37 to linear peptides of protein E of SARS-CoV Urbani [2]: 0.8
Binding of serum 37 to looped/cyclic peptides of protein E of SARS-CoV Urbani [2]: 0.2
Binding of serum 62 to linear peptides of protein E of SARS-CoV Urbani [2]: 0.7
Binding of serum 62 to looped/cyclic peptides of protein E of SARS-CoV Urbani [2]: 0.4
Binding of serum London to linear peptides of protein E of SARS-CoV Urbani [2]: 0.5
Binding of serum London to looped/cyclic peptides of protein E of SARS-CoV Urbani [2]: 0.4
Binding of serum SARS-green to linear peptides of protein E of SARS-CoV Urbani [2]: 0.4
Binding of serum SARS-green to looped/cyclic peptides of protein E of SARS-CoV Urbani [2]: 0.4
Binding of serum SARS-yellow to linear peptides of protein E of SARS-CoV Urbani [2]: 0.2
Binding of serum SARS-yellow to looped/cyclic peptides of protein E of SARS-CoV Urbani [2]: 0.0
Binding of Control Serum Blood-Bank to Looped peptides [3]: 0.7
Binding of Control serum Blood-bank to linear peptides [3]: 0.7
Binding of Control serum LUMC to linear peptides [3]: 0.5
Binding of Control serum LUMC to looped peptides [3]: 0.3

IAEILIIIMRTFRIA
Rabbit serum linear peptides [1]: 0.3
Rabbit serum looped peptides [1]: 0.2
Binding of serum 1a to linear peptides of protein X3 of SARS-CoV Urbani [2]: 0.8
Binding of serum 1a to looped/cyclic peptides of protein X3 of SARS-CoV Urbani [2]: 0.7
Binding of serum 1b to linear peptides of protein X3 of SARS-CoV Urbani [2]: 0.5
Binding of serum 1b to looped/cyclic peptides of protein X3 of SARS-CoV Urbani [2]: 0.3
Binding of serum 2 to linear peptides of protein X3 of SARS-CoV Urbani [2]: 0.6
Binding of serum 2 to looped/cyclic peptides of protein X3 of SARS-CoV Urbani [2]: 0.5
Binding of serum 6 to linear peptides of protein X3 of SARS-CoV Urbani [2]: 0.0
Binding of serum 6 to looped/cyclic peptides of protein X3 of SARS-CoV Urbani [2]: 0.7
Binding of serum 37 to linear peptides of protein X3 of SARS-CoV Urbani [2]: 0.6
Binding of serum 37 to looped/cyclic peptides of protein X3 of SARS-CoV Urbani [2]: 0.4
Binding of serum 62 to linear peptides of protein X3 of SARS-CoV Urbani [2]: 0.7
Binding of serum 62 to looped/cyclic peptides of protein X3 of SARS-CoV Urbani [2]: 0.4
Binding of serum London to linear peptides of protein X3 of SARS-CoV Urbani [2]: 0.7
Binding of serum London to looped/cyclic peptides of protein X3 of SARS-CoV Urbani [2]: 0.8
Binding of serum SARS-green to linear peptides of protein X3 of SARS-CoV Urbani [2]: 0.3
Binding of serum SARS-green to looped/cyclic peptides of protein X3 of SARS-CoV Urbani [2]: 0.2
Binding of serum SARS-yellow to linear peptides of protein X3 of SARS-CoV Urbani [2]: 0.3
Binding of serum SARS-yellow to looped/cyclic peptides of protein X3 of SARS-CoV Urbani [2]: 0.6
Binding of Control Serum Blood-Bank to Looped peptides of the protein X3 of SARS-CoV Urbani [3]: 0.8
Binding of Control serum Blood-bank to linear peptides of the protein X3 of SARS-CoV Urbani [3]: 0.9
Binding of Control serum LUMC to linear peptides of the protein X3 of SARS-CoV Urbani [3]: 0.5
Binding of Control serum LUMC to looped peptides of the protein X3 of SARS-CoV Urbani [3]: 0.9

LIVNSVLLFLAFVVF
Binding of a rabbit serum to linear peptides [1]: 0.5
Binding of a rabbit serum to looped peptides [1]: 0.3
Binding of serum 1a to linear peptides of protein E of SARS-CoV Urbani [2]: 0.8
Binding of serum 1a to looped/cyclic peptides of protein E of SARS-CoV Urbani [2]: 0.5
Binding of serum 1b to linear peptides of protein E of SARS-CoV Urbani [2]: 0.6
Binding of serum 1b to looped/cyclic peptides of protein E of SARS-CoV Urbani [2]: 0.4
Binding of serum 2 to linear peptides of protein E of SARS-CoV Urbani [2]: 0.4
Binding of serum 2 to looped/cyclic peptides of protein E of SARS-CoV Urbani [2]: 0.5
Binding of serum 6 to linear peptides of protein E of SARS-CoV Urbani [2]: 0.7
Binding of serum 6 to looped/cyclic peptides of protein E of SARS-CoV Urbani [2]: 0.4
Binding of serum 37 to linear peptides of protein E of SARS-CoV Urbani [2]: 0.6
Binding of serum 37 to looped/cyclic peptides of protein E of SARS-CoV Urbani [2]: 0.5
Binding of serum 62 to linear peptides of protein E of SARS-CoV Urbani [2]: 0.6
Binding of serum 62 to looped/cyclic peptides of protein E of SARS-CoV Urbani [2]: 0.6
Binding of serum London to linear peptides of protein E of SARS-CoV Urbani [2]: 0.4
Binding of serum London to looped/cyclic peptides of protein E of SARS-CoV Urbani [2]: 0.3
Binding of serum SARS-green to linear peptides of protein E of SARS-CoV Urbani [2]: 0.4
Binding of serum SARS-green to looped/cyclic peptides of protein E of SARS-CoV Urbani [2]: 0.2
Binding of serum SARS-yellow to linear peptides of protein E of SARS-CoV Urbani [2]: 0.3
Binding of serum SARS-yellow to looped/cyclic peptides of protein E of SARS-CoV Urbani [2]: 0.5
Binding of Control Serum Blood-Bank to Looped peptides [3]: 0.8
Binding of Control serum Blood-bank to linear peptides [3]: 0.5
Binding of Control serum LUMC to linear peptides [3]: 0.3
Binding of Control serum LUMC to looped peptides [3]: 0.8

LLFLAFVVFLLVTLA
Binding of a rabbit serum to linear peptides [1]: 0.6
Binding of a rabbit serum to looped peptides [1]: 0.4
Binding of serum 1a to linear peptides of protein E of SARS-CoV Urbani [2]: 0.8
Binding of serum 1a to looped/cyclic peptides of protein E of SARS-CoV Urbani [2]: 0.7
Binding of serum 1b to linear peptides of protein E of SARS-CoV Urbani [2]: 0.6
Binding of serum 1b to looped/cyclic peptides of protein E of SARS-CoV Urbani [2]: 0.4
Binding of serum 2 to linear peptides of protein E of SARS-CoV Urbani [2]: 0.5
Binding of serum 2 to looped/cyclic peptides of protein E of SARS-CoV Urbani [2]: 0.6
Binding of serum 6 to linear peptides of protein E of SARS-CoV Urbani [2]: 0.7
Binding of serum 6 to looped/cyclic peptides of protein E of SARS-CoV Urbani [2]: 0.4
Binding of serum 37 to linear peptides of protein E of SARS-CoV Urbani [2]: 0.7
Binding of serum 37 to looped/cyclic peptides of protein E of SARS-CoV Urbani [2]: 0.7
Binding of serum 62 to linear peptides of protein E of SARS-CoV Urbani [2]: 0.7
Binding of serum 62 to looped/cyclic peptides of protein E of SARS-CoV Urbani [2]: 0.7
Binding of serum London to linear peptides of protein E of SARS-CoV Urbani [2]: 0.5
Binding of serum London to looped/cyclic peptides of protein E of SARS-CoV Urbani [2]: 0.4
Binding of serum SARS-green to linear peptides of protein E of SARS-CoV Urbani [2]: 0.4
Binding of serum SARS-green to looped/cyclic peptides of protein E of SARS-CoV Urbani [2]: 0.4
Binding of serum SARS-yellow to linear peptides of protein E of SARS-CoV Urbani [2]: 0.2
Binding of serum SARS-yellow to looped/cyclic peptides of protein E of SARS-CoV Urbani [2]: 0.7
Binding of Control Serum Blood-Bank to Looped peptides [3]: 0.5
Binding of Control serum Blood-bank to linear peptides [3]: 0.6
Binding of Control serum LUMC to linear peptides [3]: 0.4
Binding of Control serum LUMC to looped peptides [3]: 0.7

MYSFVSEETGTLIVN
Binding of a rabbit serum to linear peptides [1]: 0.5
Binding of a rabbit serum to looped peptides [1]: 0.2
Binding of serum 1a to linear peptides of protein E of SARS-CoV Urbani [2]: 0.8
Binding of serum 1a to looped/cyclic peptides of protein E of SARS-CoV Urbani [2]: 0.7
Binding of serum 1b to linear peptides of protein E of SARS-CoV Urbani [2]: 0.8
Binding of serum 1b to looped/cyclic peptides of protein E of SARS-CoV Urbani [2]: 0.5
Binding of serum 2 to linear peptides of protein E of SARS-CoV Urbani [2]: 0.6
Binding of serum 2 to looped/cyclic peptides of protein E of SARS-CoV Urbani [2]: 0.6
Binding of serum 6 to linear peptides of protein E of SARS-CoV Urbani [2]: 0.6
Binding of serum 6 to looped/cyclic peptides of protein E of SARS-CoV Urbani [2]: 0.5
Binding of serum 37 to linear peptides of protein E of SARS-CoV Urbani [2]: 0.8
Binding of serum 37 to looped/cyclic peptides of protein E of SARS-CoV Urbani [2]: 0.7
Binding of serum 62 to linear peptides of protein E of SARS-CoV Urbani [2]: 0.8
Binding of serum 62 to looped/cyclic peptides of protein E of SARS-CoV Urbani [2]: 0.8
Binding of serum London to linear peptides of protein E of SARS-CoV Urbani [2]: 0.6
Binding of serum London to looped/cyclic peptides of protein E of SARS-CoV Urbani [2]: 0.4
Binding of serum SARS-green to linear peptides of protein E of SARS-CoV Urbani [2]: 0.6
Binding of serum SARS-green to looped/cyclic peptides of protein E of SARS-CoV Urbani [2]: 0.4
Binding of serum SARS-yellow to linear peptides of protein E of SARS-CoV Urbani [2]: 0.1
Binding of serum SARS-yellow to looped/cyclic peptides of protein E of SARS-CoV Urbani [2]: 0.8
Binding of Control Serum Blood-Bank to Looped peptides [3]: 0.6
Binding of Control serum Blood-bank to linear peptides [3]: 0.8
Binding of Control serum LUMC to linear peptides [3]: 0.7
Binding of Control serum LUMC to looped peptides [3]: 0.8
